{
  "source": "patent EP2181589A1",
  "about": "“Neurotoxic sterol glycosides” (Shaw, Christopher Ariel, priority 2008, dated 2010)",
  "key": {"[1]": {"system": "Motor Neurons per lumbar cord section", "experiment": "Motor neuron counts, cresyl violet (Nissl) histology", "format": "in vivo, CD-1 mice", "description": "(§1) The synthetic SG was mixed with finely ground Purina Chow mouse pellets (Mouse Diet™, Purina) to create the experimental pellets with a SG content of 1000 µg per pellet. Dry materials were blended with a sterile silicon spatula. For every 5 g of standard feed, 2.5 mL of doubly-distilled water (dd)H2O was added and the dough was kneaded and round up into pellets. A single sterol glucoside containing pellet was placed in the feeding tray each morning before the addition of regular mouse chow (ad libitum). All experimental pellets were entirely consumed by the mice each day. Control mice were fed standard mouse chow pellets of identical weight with no additives. SG feeding was conducted daily for 15 weeks and mice were behaviorally monitored until sacrifice at 35 weeks (time point 1) or 52 weeks (time point 2).\nMice were sacrificed for histological analysis at 35 weeks (35.9-48.6 g) and 52 weeks (41.2-51.4 g) of age. Age-matched control mice from each time point were included for comparison. The mice were deeply anaesthetized in a chamber with 4% isoflurane and perfused intracardially with filtered PBS (pH 7.4) until the effluent was cleared of blood (2 minutes), followed by perfusion with cold (4°C) 4% paraformaldehyde (PFA) in 0.1 M phosphate buffer (pH 7.4) for 5 minutes (30 mL). The PBS and the PFA were delivered through separate sterile platinum-cured silicon tubing (Cole-Parmer Canada Inc., Montreal, Canada) and peristaltic pumps (MasterFlex peristaltic pump, Cole-Parmer Canada Inc., Montreal, Canada). The brains and spinal cords were dissected out and fixed overnight at 4°C and equilibrated in increasing concentrations of sucrose in phosphate-buffered saline, pH 7.4 (10, 20, and 25%) over a 3-day period. Complete equilibration of the tissues was taken as the moment the tissues sank to the bottom of the scintillation tubes filled with 25% sucrose. After equilibration, the spinal cord and brain specimens were set in molds (Tissue-tek Cryomold, Sakura Finetek, USA, Torrance, CA) with an optimum cutting temperature (OCT) gel-sucrose mixture frozen by immersion in an isopentane (BDH Laboratory Supplies, UK) bath on dry ice and stored at -80°C until processing.\nCryosectioning of tissue: Frozen, coronal sections (spinal cord: 20 µm, brain: 30 µm) were cut with a Hacker-Bright cryostat (Hacker Instruments and Industries Inc., Winnsboro, SC) and mounted on charged glass slides (Superfrost Plus; Fisher Scientific, Pittsburgh, PA) so that adjacent CNS sections on each slide represented regions 100 µm and 150 µm apart for spinal cord and brain, respectively ((Tabata, Wilson et al. 2008)). The slides were stored at -80°C until histological processing. To ensure CNS sections were matched between animals, anatomical landmarks were verified using a mouse brain atlas (Paxinos and Franklin 2001).\nHistology and quantification of motor neurons: Spinal cord and brain sections from each animal were stained for Nissl body substance. At room temperature (RT), sections were rinsed in a graded ethanol series (95%: 15 min; 70%: 1 min; 50%: 1 min) to rehydrate and remove lipids and fixation chemicals from the tissue. The tissue were then rinsed for 2 min in two exchanges of distilled water, stained with twice-filtered cresyl violet stain (1.25 g cresyl violet acetate, 0.75 mL glacial acetic acid to 250 mL distilled water), rinsed in distilled water (1 minute), and then dehydrated (50% ethanol: 1 minute; 1% glacial acetic acid-70% ethanol: 2 minutes; 95% ethanol: 2 minutes; 95% ethanol: 3 dips; 100% ethanol: 1 minute) and cleared in xylene. The slides were then cover-slipped in Entellen mountant (Merck, Darmstadt, Germany). The tissue mounted slides were selected with a randomized start and sampled starting from the lumbar 2 region to the 6th. […]"}, "[2]": {"system": "Phosphorylated tau aggregates", "experiment": "Tau immunohistochemistry", "format": "in vivo, CD-1 mice", "set-up": "key to Phosphorylated tau aggregates: - = not present; + = present", "conditions": "for Phosphorylated tau aggregates: SG-fed", "description": "as §1\nTissue-mounted slides were processed for fluorescence microscopy as follows: Sections were rinsed in coplin jars for 45 minutes at room temperature (RT) in three changes of PBS. Sections were then incubated at RT for 30 minutes in a blocking permeabilization solution made of 5% normal goat serum (NGS), 5% normal rabbit serum (NRS) or 5% BlokHen II (Aves Labs, Inc., Tigard, OR), 0.05% Triton X-100 and PBS. Subsequently, the blocking solution was tipped off and the slides were rinsed in PBS for 2 minutes. […]"}, "[3]": {"conditions": "SG-fed vs control, time-point 1, 35 wk"}, "[4]": {"conditions": "SG-fed vs control, time-point 2, 52 wk"}, "[5]": {"conditions": "SG-group over time, 35 to 52 wk"}},
  "note": "Entries after “also recorded” stand apart in the source; their conditions may differ. Marks after values point to notes of the source that are not given here.",
  "data": [
    {"smiles": "CCC(C=CC(C)C1CCC2C3CC=C4CC(OC5OC(CO)C(O)C(O)C5O)CCC4(C)C3CCC12C)C(C)C", "note": "(stereo not drawn) [SG]", "values": [
      {"measurement": "Chromatolytic α-MN", "setting": "[1]; [3]", "result": "Chromatolytic α-MN (ns)"},
      {"measurement": "Healthy α-MN", "setting": "[1]; [3]", "result": "Healthy α-MN (ns)"},
      {"measurement": "Pyknotic α-MN", "setting": "[1]; [3]", "result": "Pyknotic α-MN (ns)"},
      {"measurement": "Total γ-MN", "setting": "[1]; [3]", "result": "Total γ-MN (ns)"},
      {"measurement": "Chromatolytic α-MN", "setting": "[1]; [4]", "result": "Chromatolytic α-MN (ns)"},
      {"measurement": "Pyknotic α-MN", "setting": "[1]; [4]", "result": "Pyknotic α-MN (ns)"},
      {"measurement": "Total γ-MN", "setting": "[1]; [4]", "result": "Total γ-MN (ns)"},
      {"measurement": "Total α-MN", "setting": "[1]; SG-fed vs control, time-point 2, 52 wk, table cell prints no unit", "result": "Total α-MN: -47*"},
      {"measurement": "Chromatolytic α-MN", "setting": "[1]; [5]", "result": "(control group & SG-group independently over time) (ns)"},
      {"measurement": "Pyknotic α-MN", "setting": "[1]; [5]", "result": "(control group and SG-group independently over time) (ns)"},
      {"measurement": "Total γ-MN", "setting": "[1]; [5]", "result": "(control group and SG-group independently over time) (ns)"},
      {"measurement": "Phosphorylated tau aggregates, animals affected", "setting": "[2]; SG-fed group, time-point 2, 52 wk", "result": "2/8"},
      {"measurement": "Phosphorylated Tau aggregates", "setting": "[2]; SG-fed mice, none in non-treated mice", "result": "induced accumulation of phosphorylated tau; also recorded: observed"},
      {"measurement": "Phosphorylated tau aggregates", "setting": "[2]; time-point 1, 35 wk", "result": "-"},
      {"measurement": "Phosphorylated tau aggregates", "setting": "[2]; time-point 2, 52 wk", "result": "+"}
    ]}
  ]
}
